US20120046276A1, “Tuberculosis treatment using pleuromutilin derivatives” (priority 2002, published 2012)

Experiments:
Format in all cases: cell-based
[1] = tested on: Mycobacterium tuberculosis strain 2; assay: Agar Dilution Test (MIC), strain 2 (Isoniacid S, Rifampicin S, Streptomycin S); settings: TABLE A; strain 2; MIC determined after 3, 4 and 5 weeks
[2] = tested on: Mycobacterium tuberculosis strain 6; assay: Agar Dilution Test (MIC), strain 6 (Isoniacid S, Rifampicin S, Streptomycin S); settings: TABLE A; strain 6; MIC determined after 3, 4 and 5 weeks
[3] = tested on: Mycobacterium tuberculosis strain 1; assay: Agar Dilution Test (MIC), strain 1 (Isoniacid S, Rifampicin S, Streptomycin S); settings: TABLE A; strain 1; MIC determined after 3, 4 and 5 weeks
[4] = tested on: Mycobacterium tuberculosis strain 7; assay: Agar Dilution Test (MIC), strain 7 (Isoniacid R, Rifampicin S, Streptomycin R); settings: TABLE A; strain 7; MIC determined after 3, 4 and 5 weeks
[5] = tested on: Mycobacterium tuberculosis strain 10; assay: Agar Dilution Test (MIC), strain 10 (Isoniacid S, Rifampicin S, Streptomycin S); settings: TABLE A; strain 10; MIC determined after 3, 4 and 5 weeks
[6] = tested on: Mycobacterium tuberculosis strain 3; assay: Agar Dilution Test (MIC), strain 3 (Isoniacid R, Rifampicin R, Streptomycin S); settings: TABLE A; strain 3; MIC determined after 3, 4 and 5 weeks
[7] = tested on: Mycobacterium tuberculosis strain 5; assay: Agar Dilution Test (MIC), strain 5 (Isoniacid R, Rifampicin R, Streptomycin S); settings: TABLE A; strain 5; MIC determined after 3, 4 and 5 weeks
[8] = tested on: Mycobacterium tuberculosis strain 13; assay: Agar Dilution Test (MIC), strain 13 (Isoniacid S, Rifampicin S, Streptomycin S); settings: TABLE A; strain 13; MIC determined after 3, 4 and 5 weeks
[9] = tested on: Mycobacterium tuberculosis strain 11; assay: Agar Dilution Test (MIC), strain 11 (Isoniacid S, Rifampicin S, Streptomycin S); settings: TABLE A; strain 11; MIC determined after 3, 4 and 5 weeks
[10] = tested on: Mycobacterium tuberculosis strain 12; assay: Agar Dilution Test (MIC), strain 12 (Isoniacid S, Rifampicin S, Streptomycin S); settings: TABLE A; strain 12; MIC determined after 3, 4 and 5 weeks
[11] = tested on: Mycobacterium tuberculosis strain 9; assay: Agar Dilution Test (MIC), strain 9 (Isoniacid R, Rifampicin S, Streptomycin R); settings: TABLE A, MIC determined after 3, 4 and 5 weeks
[12] = tested on: Mycobacterium tuberculosis strain 8; assay: Agar Dilution Test (MIC), strain 8 (Isoniacid S, Rifampicin R, Streptomycin S); settings: TABLE A; strain 8; MIC determined after 3, 4 and 5 weeks
[13] = tested on: Mycobacterium tuberculosis strain 14; assay: Agar Dilution Test (MIC), strain 14 (Isoniacid S, Rifampicin S, Streptomycin S); settings: TABLE A; strain 14; MIC determined after 3, 4 and 5 weeks
[14] = tested on: Mycobacterium tuberculosis strain 4; assay: Agar Dilution Test (MIC), strain 4 (Isoniacid R, Rifampicin R, Streptomycin R); settings: TABLE A; strain 4; MIC determined after 3, 4 and 5 weeks
[15] = tested on: Mycobacterium tuberculosis strain 15 (labor strain 137 kV); assay: Agar Dilution Test (MIC), strain 15 = labor strain 137 kV (Isoniacid S, Rifampicin S, Streptomycin S); settings: TABLE A; strain 15; MIC determined after 3, 4 and 5 weeks

| Structure (SMILES) | sensible (S) or resistant (R) [1] | sensible (S) or resistant (R) [2] | sensible (S) or resistant (R) [3] | sensible (S) or resistant (R) [4] | sensible (S) or resistant (R) [5] | sensible (S) or resistant (R) [6] | sensible (S) or resistant (R) [7] | sensible (S) or resistant (R) [8] | sensible (S) or resistant (R) [9] | sensible (S) or resistant (R) [10] | sensible (S) or resistant (R) [11] | sensible (S) or resistant (R) [12] | sensible (S) or resistant (R) [13] | sensible (S) or resistant (R) [14] | sensible (S) or resistant (R) [15] |
| --- | --- | --- | --- | --- | --- | --- | --- | --- | --- | --- | --- | --- | --- | --- | --- |
| NNC(=O)c1ccncc1 [Isoniacid] | S (sensible (S)) | S (sensible (S)) | S (sensible (S)) | R (A strain is designated as resistant if its MIC in testing according to the General Test Procedure after 3 to 5 weeks is higher than 20 μg/ml) | S (sensible (S)) | R (A strain is designated as resistant if its MIC in testing according to the General Test Procedure after 3 to 5 weeks is higher than 20 μg/ml) | R (A strain is designated as resistant if its MIC in testing according to the General Test Procedure after 3 to 5 weeks is higher than 20 μg/ml) | S (sensible (S)) | S (sensible (S)) | S (sensible (S)) | R (A strain is designated as resistant if its MIC in testing according to the General Test Procedure after 3 to 5 weeks is higher than 20 μg/ml) | S (sensible (S)) | S (sensible (S)) | R (A strain is designated as resistant if its MIC in testing according to the General Test Procedure after 3 to 5 weeks is higher than 20 μg/ml) | S (sensible (S)) |
| CO[C@H]1/C=C/O[C@@]2(C)Oc3c(C)c(O)c4c(O)c(c(/C=N/N5CCN(C)CC5)c(O)c4c3C2=O)NC(=O)/C(C)=C\C=C\[C@H](C)[C@H](O)[C@@H](C)[C@@H](O)[C@@H](C)[C@H](OC(C)=O)[C@@H]1C [Rifampicin] | S (sensible (S)) | S (sensible (S)) | S (sensible (S)) | S (sensible (S)) | S (sensible (S)) | R (A strain is designated as resistant if its MIC in testing according to the General Test Procedure after 3 to 5 weeks is higher than 20 μg/ml) | R (A strain is designated as resistant if its MIC in testing according to the General Test Procedure after 3 to 5 weeks is higher than 20 μg/ml) | S (sensible (S)) | S (sensible (S)) | S (sensible (S)) | S (sensible (S)) | R (A strain is designated as resistant if its MIC in testing according to the General Test Procedure after 3 to 5 weeks is higher than 20 μg/ml) | S (sensible (S)) | R (A strain is designated as resistant if its MIC in testing according to the General Test Procedure after 3 to 5 weeks is higher than 20 μg/ml) | S (sensible (S)) |
| [H]/N=C(/N)N[C@H]1[C@H](O)[C@@H](O)[C@H](O[C@@H]2O[C@@H](C)[C@](O)(C=O)[C@H]2O[C@@H]2O[C@@H](CO)[C@H](O)[C@@H](O)[C@@H]2NC)[C@@H](N/C(N)=N\[H])[C@@H]1O [Streptomycin] | S (sensible (S)) | S (sensible (S)) | S (sensible (S)) | R (A strain is designated as resistant if its MIC in testing according to the General Test Procedure after 3 to 5 weeks is higher than 20 μg/ml) | S (sensible (S)) | S (sensible (S)) | S (sensible (S)) | S (sensible (S)) | S (sensible (S)) | S (sensible (S)) | R (A strain is designated as resistant if its MIC in testing according to the General Test Procedure after 3 to 5 weeks is higher than 20 μg/ml) | S (sensible (S)) | S (sensible (S)) | R (A strain is designated as resistant if its MIC in testing according to the General Test Procedure after 3 to 5 weeks is higher than 20 μg/ml) | S (sensible (S)) |
